Data on 21 compounds can be found in patent publication US9751878B2, “Tetrahydronaphthyridine somatostatin receptor 5 antagonists” (Takeda Pharmaceutical Company Limited, priority 2013, dated 2017).

In general, inhibition refers to the change of the read-out against control, counted positive when it falls.

In this assay the target is T1, human SSTR5 (Homo sapiens, UniProt P35346).
T1 construct: expressed in transfected cells
T1 sequence (P35346 whole entry): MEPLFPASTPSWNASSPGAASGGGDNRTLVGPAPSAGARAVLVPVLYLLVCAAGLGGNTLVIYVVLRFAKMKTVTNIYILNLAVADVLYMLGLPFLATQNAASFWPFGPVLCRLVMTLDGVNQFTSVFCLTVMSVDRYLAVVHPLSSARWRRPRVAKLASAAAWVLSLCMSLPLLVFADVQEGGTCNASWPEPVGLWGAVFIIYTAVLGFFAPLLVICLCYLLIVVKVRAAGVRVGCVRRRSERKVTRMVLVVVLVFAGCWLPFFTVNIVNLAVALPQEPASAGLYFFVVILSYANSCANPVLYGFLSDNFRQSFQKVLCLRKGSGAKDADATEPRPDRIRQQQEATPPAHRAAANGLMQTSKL
The assay is described as follows: Evaluation of human SSTR5 antagonist activity using intracellular cAMP concentration as index. In kind it is cell-based. The conditions noted are these: 1 μM test compound; CHO (dhfr-) cells stably expressing human SSTR5; 0.1 nM somatostatin 28, 0.3 μM forskolin; cAMP HTRF; read-out: Inhibition rate against SSTR5 at 1 μM. Here is the method: Evaluation of Human SSTR5 Antagonist Activity Using Intracellular cAMP Concentration as Index
The intracellular cAMP concentration was measured using HTRF cAMP dynamic 2 kit (Cisbio Bioassays). Each test compound diluted with an assay buffer (HBSS (Invitrogen Corp.) containing 5 mM HEPES (pH 7.5) (Invitrogen Corp.), 0.1% fatty-acid free BSA (Sigma-Aldrich Corp.), and 500 μM IBMX (Wako Pure Chemical Industries, Ltd.)) was added at a concentration of 2 μL/well to a 384-well white plate (Greiner Bio-One Co., Ltd.) to give the final concentration of 1 μM. A frozen stock of CHO (dhfr-) cells stably expressing the human SSTR5 gene (Accession No. NM_001053) was thawed in a thermostat bath of 37° C. and suspended in a subculture medium (MEM alpha (Wako Pure Chemical Industries, Ltd.), 10% dialyzed serum (Gemini Bio-Products), and 50 μg/mL gentamicin (Invitrogen Corp.). After centrifugation of the cell suspension, the cells were resuspended in an assay buffer and added at a concentration of 2 μL/well (about 4,000 cells/well) to the plate. The compound and the cells were incubated for 15 minutes, and then, an assay buffer containing 0.1 nM (final concentration) somatostatin 28 (Toray Research Center) and 0.3 μM (final concentration) forskolin (Wako Pure Chemical Industries, Ltd.) was added thereto at a concentration of 2 μL/well, followed by incubation at room temperature for 30 minutes. cAMP-d2 and anti-cAMP-cryptate were each added thereto at a concentration of 3 μL/well. The plate was left standing at room temperature for 60 minutes. Then, the fluorescence resonance energy transfer (FRET) intensity was measured using Multi-label reader Envision (PerkinElmer). The FRET intensity of the wells supplemented with the test compound group was converted to a cAMP concentration using a calibration curve prepared from the FRET intensity of a well group containing an assay buffer supplemented with an arbitrary concentration of cAMP. The inhibitory activity of each compound was calculated according to the following expression: Inhibitory activity (%)=(C−B)/(A−B)×100 A: cAMP concentration calculated from the wells supplemented with 0.3 μM forskolin B: cAMP concentration calculated from the wells supplemented with 0.3 μM forskolin and 0.1 nM somatostatin 28 C: cAMP concentration calculated from the wells supplemented with 0.3 μM forskolin, 0.1 nM somatostatin 28, and 1 μM test compound
A general note: TR-FRET usually uses a lanthanide donor and a delayed reading to cut background.
For `CCOc1cc(CN2CCC(N3CCc4ncc(C(=O)O)cc4C3=O)C2)cc(OCC)c1-c1ccc(F)cc1` (stereo not drawn) [Example 34, 6-(1-((2,6-Diethoxy-4′-fluorobiphenyl-4-yl)methyl)pyrrolidin-3-yl)-5-oxo-5,6,7,8-tetrahydro-1,6-naphthyridine-3-carboxylic acid], the inhibition at 1 µM turned out to be 102%.
The figure for `CCCc1nc2c(cc1C(=O)O)C(=O)N(C1CCN(Cc3cc(OCC)c(-c4ccc(F)cc4)c(C4CC4)c3)CC1)CC2` [Example 36, 6-(1-((2-Cyclopropyl-6-ethoxy-4′-fluorobiphenyl-4-yl)methyl)piperidin-4-yl)-5-oxo-2-propyl-5,6,7,8-tetrahydro-1,6-naphthyridine-3-carboxylic acid] is 94%.
Take `CCCc1nc2c(cc1C(=O)O)C(=O)N(C1CCN(Cc3cc(C4CC4)c(-c4ccc(F)cc4)cc3OC(C)C)CC1)CC2` [Example 37, 6-(1-((2-Cyclopropyl-4′-fluoro-5-isopropoxybiphenyl-4-yl)methyl)piperidin-4-yl)-5-oxo-2-propyl-5,6,7,8-tetrahydro-1,6-naphthyridine-3-carboxylic acid]: the inhibition at 1 µM stood at 97%.
The figure for `CCCc1nc2c(cc1C(=O)O)C(=O)N(C1CCN(Cc3cc(OCC)c(-c4ccc(F)cc4)c(OCC)c3)CC1)CC2` [Example 38, 6-(1-((2,6-Diethoxy-4′-fluorobiphenyl-4-yl)methyl)piperidin-4-yl)-5-oxo-2-propyl-5,6,7,8-tetrahydro-1,6-naphthyridine-3-carboxylic acid] is 97%; for `CCCc1nc2c(cc1C(=O)O)C(=O)N(C1CCN(Cc3cc(C4CC4)c(-c4ccc(F)c(F)c4)cc3OC(C)C)CC1)CC2` [Example 39, 6-(1-((2-Cyclopropyl-3′,4′-difluoro-5-isopropoxybiphenyl-4-yl)methyl)piperidin-4-yl)-5-oxo-2-propyl-5,6,7,8-tetrahydro-1,6-naphthyridine-3-carboxylic acid] it is 112%; for `CCCc1nc2c(cc1C(=O)O)C(=O)N(C1CCN(Cc3cc(C4CC4)c(-c4ccc(F)cc4F)cc3OC(C)C)CC1)CC2` [Example 40, 6-(1-((2-Cyclopropyl-2′,4′-difluoro-5-isopropoxybiphenyl-4-yl)methyl)piperidin-4-yl)-5-oxo-2-propyl-5,6,7,8-tetrahydro-1,6-naphthyridine-3-carboxylic acid] it is 148%.
The same measure for `CCCc1nc2c(cc1C(=O)O)C(=O)N(C1CCN(Cc3cc(C4CC4)c(C4CCC4)cc3OC(C)C)CC1)CC2` [Example 41, 6-(1-(4-Cyclobutyl-5-cyclopropyl-2-isopropoxybenzyl)piperidin-4-yl)-5-oxo-2-propyl-5,6,7,8-tetrahydro-1,6-naphthyridine-3-carboxylic acid]: 99%.
Consider `CCCc1nc2c(cc1C(=O)O)C(=O)N(C1CCN(Cc3cc(C4CC4)c(-c4ccc(F)cc4)cc3OC)CC1)CC2` [Example 42, 6-(1-((2-Cyclopropyl-4′-fluoro-5-methoxybiphenyl-4-yl)methyl)piperidin-4-yl)-5-oxo-2-propyl-5,6,7,8-tetrahydro-1,6-naphthyridine-3-carboxylic acid], for which the inhibition at 1 µM worked out at 136%.
On to `CCCc1nc2c(cc1C(=O)O)C(=O)N(C1CCN(Cc3cc(C4CC4)c(-c4ccc(F)c(F)c4)cc3OCC)CC1)CC2` [Example 43, 6-(1-((2-Cyclopropyl-5-ethoxy-3′,4′-difluorobiphenyl-4-yl)methyl)piperidin-4-yl)-5-oxo-2-propyl-5,6,7,8-tetrahydro-1,6-naphthyridine-3-carboxylic acid], for which the inhibition at 1 µM was 95%.
The same measure for `CCc1nc2c(cc1C(=O)O)C(=O)N(C1CCN(Cc3cc(C4CC4)c(-c4ccc(F)cc4)cc3OC(C)C)CC1)CC2` [Example 44, 6-(1-((2-Cyclopropyl-4′-fluoro-5-isopropoxybiphenyl-4-yl)methyl)piperidin-4-yl)-2-ethyl-5-oxo-5,6,7,8-tetrahydro-1,6-naphthyridine-3-carboxylic acid]: 111%; for `CCOc1cc(CN2CCC(N3CCc4nc(CC)c(C(=O)O)cc4C3=O)CC2)cc(C2CC2)c1-c1ccc(F)cc1` [Example 45, 6-(1-((2-Cyclopropyl-6-ethoxy-4′-fluorobiphenyl-4-yl)methyl)piperidin-4-yl)-2-ethyl-5-oxo-5,6,7,8-tetrahydro-1,6-naphthyridine-3-carboxylic acid]: 99%; for `CCc1nc2c(cc1C(=O)O)C(=O)N(C1CCN(Cc3cc(C4CC4)c(-c4ccc(F)cc4F)cc3OC(C)C)CC1)CC2` [Example 46, 6-(1-((2-Cyclopropyl-2′,4′-difluoro-5-isopropoxybiphenyl-4-yl)methyl)piperidin-4-yl)-2-ethyl-5-oxo-5,6,7,8-tetrahydro-1,6-naphthyridine-3-carboxylic acid]: 86%.
Turning to `CCOc1cc(-c2ccc(F)cc2)c(C2CC2)cc1CN1CCC(N2CCc3nc(COC)c(C(=O)O)cc3C2=O)CC1` [Example 47, 6-(1-((2-Cyclopropyl-5-ethoxy-4′-fluorobiphenyl-4-yl)methyl)piperidin-4-yl)-2-(methoxymethyl)-5-oxo-5,6,7,8-tetrahydro-1,6-naphthyridine-3-carboxylic acid], the inhibition at 1 µM worked out at 106%.
The figure for `CCOc1cc(-c2ccc(F)cc2F)c(C2CC2)cc1CN1CCC(N2CCc3nc(COC)c(C(=O)O)cc3C2=O)CC1` [Example 48, 6-(1-((2-Cyclopropyl-5-ethoxy-2′,4′-difluorobiphenyl-4-yl)methyl)piperidin-4-yl)-2-(methoxymethyl)-5-oxo-5,6,7,8-tetrahydro-1,6-naphthyridine-3-carboxylic acid] is 99%; for `CCOc1cc(-c2ccc(F)cc2)c(C2CC2)cc1CN1CCC(N2CCc3nc(C(C)C)c(C(=O)O)cc3C2=O)CC1` [Example 49, 6-(1-((2-Cyclopropyl-5-ethoxy-4′-fluorobiphenyl-4-yl)methyl)piperidin-4-yl)-2-isopropyl-5-oxo-5,6,7,8-tetrahydro-1,6-naphthyridine-3-carboxylic acid] it is 91%; for `CC(C)Oc1cc(-c2ccc(F)cc2)c(C2CC2)cc1CN1CCC(N2CCc3nc(C(C)C)c(C(=O)O)cc3C2=O)CC1` [Example 50, 6-(1-((2-Cyclopropyl-4′-fluoro-5-isopropoxybiphenyl-4-yl)methyl)piperidin-4-yl)-2-isopropyl-5-oxo-5,6,7,8-tetrahydro-1,6-naphthyridine-3-carboxylic acid] it is 99%.
The figure for `CCCc1nc2c(cc1C(=O)O)C(=O)N(C1CCN(Cc3cc(C4CC4)c(C4CC4)cc3OCC)CC1)CC2` [Example 51, 6-(1-(4,5-Dicyclopropyl-2-ethoxybenzyl)piperidin-4-yl)-5-oxo-2-propyl-5,6,7,8-tetrahydro-1,6-naphthyridine-3-carboxylic acid] is 103%; for `CCCc1nc2c(cc1C(=O)O)C(=O)N(C1CCN(Cc3cc(C4CC4)c(C4CCC4)cc3OCC)CC1)CC2` [Example 52, 6-(1-(4-Cyclobutyl-5-cyclopropyl-2-ethoxybenzyl)piperidin-4-yl)-5-oxo-2-propyl-5,6,7,8-tetrahydro-1,6-naphthyridine-3-carboxylic acid] it is 114%.
The same measure for `CCOc1cc(CN2CCC(N3CCc4nc(C(=O)O)ccc4C3=O)CC2)cc(OCC)c1-c1ccc(F)cc1` [Example 53, 6-(1-((2,6-Diethoxy-4′-fluorobiphenyl-4-yl)methyl)piperidin-4-yl)-5-oxo-5,6,7,8-tetrahydro-1,6-naphthyridine-2-carboxylic acid]: 108%.
For the compound `CCOc1cc(-c2ccc(F)cc2)c(C2CC2)cc1CN1CCC(N2CCc3nc(C(=O)O)ccc3C2=O)CC1` [Example 54, 6-(1-((2-Cyclopropyl-5-ethoxy-4′-fluorobiphenyl-4-yl)methyl)piperidin-4-yl)-5-oxo-5,6,7,8-tetrahydro-1,6-naphthyridine-2-carboxylic acid], the inhibition at 1 µM came out at 123%.
The figure for `CCCOc1cc(CN2CCC(N3CCc4nc(CCC)c(C(=O)O)cc4C3=O)CC2)cc(C2CC2)c1-c1ccc(F)cc1` [Example 61, 6-(1-((2-Cyclopropyl-4′-fluoro-6-propoxybiphenyl-4-yl)methyl)piperidin-4-yl)-5-oxo-2-propyl-5,6,7,8-tetrahydro-1,6-naphthyridine-3-carboxylic acid] is 96%.
